Several values for one entry are separate records, joined by “and”; a condition that tells them apart may be missing. Identical values can stand only once.
Columns and labels:
[1] = Kinetic solubility by UV/Vis; assay type: physicochemical; conditions: Opti-MEM with 2% fetal bovine serum, room temperature, 3 hours; for Kinetic solubility C1: replicate 1; for Kinetic solubility C2: replicate 2; for Kinetic solubility C3: replicate 3
Procedure: Kinetic solubility was measured by UV/Vis. In this experiment, 14 μL of 10 mM DMSO stocks of complexes 4–6 were diluted in 700 μL of Opti-MEM™ with 2% fet al bovine serum and kept at room temperature for 3 hours. The solutions were then filtered using syringe-driven filters (FV12S) and concentrations were measured by UV/vis absorbance in a 96-well plate in triplicate. […]
4. Simulate in the NPT ensemble using a Berendsen thermostat and a Berendsen barostat with: […]
5. Simulate in the NPT ensemble using a Berendsen thermostat and a Berendsen barostat with: […]
6. Simulate in the NPT ensemble using a Berendsen thermostat and a Berendsen barostat with: […]

[2] = Irradiation-induced 1O2 production (Singlet Oxygen Sensor Green assay); assay type: physicochemical; conditions: sheet S27; triplicate columns; DMSO control about 0.9
Excerpt: Some Ru(II) complexes can generate singlet oxygen when photoexcited, a feature that has been applied to the selective photoinactivation of proteins. In this approach, the Ru(II) system is conjugated to a peptide that is a specific ligand for the protein target; binding of the peptide to the protein ensures close proximity of the Ru(II) center and thus, upon photoexcitation, the generation of a high local concentration of singlet oxygen. […] As very little of this reactive oxygen species was generated, inactivation of the CYP enzymes by this process appears unlikely.
Supplementary Figure 27. Determination of irradiation-induced 1O2 production with 660 nm light (1 hr = 58.7 J/cm2)
using the Singlet Oxygen Sensor Green assay. […]

[3] = Stability of compounds in mouse liver microsomes; conditions: for Remaining, % (NCF=60min): mouse liver microsomes, no co-factor (no NADPH); for CLint scaled / Remaining, % (T=60min) / half-life / microsomal CLint: mouse, liver microsomes
[4] = molecular target: T1, recombinant CYP1B1 (Homo sapiens, UniProt Q16678); assay: CYP1B1 stability: thermal melt by circular dichroism
T1 sequence (Q16678 51-543 limits assumed): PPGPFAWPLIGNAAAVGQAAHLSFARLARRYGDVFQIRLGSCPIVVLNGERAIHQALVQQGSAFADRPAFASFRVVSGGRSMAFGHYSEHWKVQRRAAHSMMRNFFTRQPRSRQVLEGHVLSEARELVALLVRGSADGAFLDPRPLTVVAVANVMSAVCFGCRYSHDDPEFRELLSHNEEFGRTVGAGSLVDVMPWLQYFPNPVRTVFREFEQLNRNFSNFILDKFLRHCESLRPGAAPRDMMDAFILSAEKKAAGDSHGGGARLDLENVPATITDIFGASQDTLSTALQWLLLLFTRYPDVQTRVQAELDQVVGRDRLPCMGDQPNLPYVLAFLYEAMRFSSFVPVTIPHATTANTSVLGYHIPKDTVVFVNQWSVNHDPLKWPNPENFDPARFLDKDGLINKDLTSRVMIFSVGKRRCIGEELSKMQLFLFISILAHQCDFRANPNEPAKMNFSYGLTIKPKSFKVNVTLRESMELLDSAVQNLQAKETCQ
Procedure: Circular Dichroism (CD) was used to monitor changes in the secondary structure with increasing temperature. […] CYP1B1 was expressed and purified as reported. […] Spectra were taken scanning from 200 to 260 nm in duplicate. The temperature was increased followed by a 3 min equilibration period before spectra acquisition. The ellipticity values at 230 nm were plotted against temperature and fit to determine the Tm (Prism).

For `COc1ccc(/C=C/c2cc[n+]([Ru-4]345([n+]6ccccc6-c6cccc([n+]63)-c3cccc[n+]34)[n+]3c(cc(C(=O)[O-])c4ccccc43)-c3cc(C(=O)[O-])c4ccccc4[n+]35)cn2)c(OC)c1` [Compound 5], the “Kinetic solubility C average” value [1] was 112.2 µM, the “Kinetic solubility C1” value [1] was 113.3 µM and the “Kinetic solubility C2” value [1] was 110.0 µM. For the same compound, the “Kinetic solubility C3” value [1] was 113.0 µM and the “irradiation-induced 1O2 production (Singlet Oxygen Sensor Green signal, relative)” value [2] was 1.081 and 0.9897 and 0.9798.
For `COc1ccc(C=Cc2ccncc2)c(OC)c1` [Compound 3], the “Remaining, % (NCF=60min)” value [3] was 137.9%, the CLint scaled [3] was 1900 mL/min/kg and the “Remaining, % (T=60min)” value [3] was 0.1%. The half-life [3] was 2.89 min, the microsomal CLint [3] was 480 µL/min/mg and the “increase of thermal stability of CYP1B1” value ([4]; 10 μM compound) was 2 °C. The Tm ([4]; recombinant CYP1B1 + 10 µM compound, no compound 47.9) was 50.4 +/− 0.26 °C.
In the case of `COc1ccc(/C=C/c2cc[n+]([Ru-4]345([n+]6ccccc6-c6cccc([n+]63)-c3cccc[n+]34)[n+]3c(cc(C(=O)[O-])c4ccccc43)-c3cc(C(=O)[O-])c4ccccc4[n+]35)cc2)c(OC)c1` [Compound 6], the “Kinetic solubility C average” value [1] is reported as 36.9 µM, the “Kinetic solubility C1” value [1] is reported as 33.9 µM and the “Kinetic solubility C2” value [1] is reported as 38.5 µM. For the same compound, the “Kinetic solubility C3” value [1] was 38.2 µM and the “irradiation-induced 1O2 production (Singlet Oxygen Sensor Green signal, relative)” value [2] was 0.9896 and 0.937 and 1.032.
In the case of `COc1ccc(/C=C/c2ccncn2)c(OC)c1` [Compound 2], the “Remaining, % (NCF=60min)” value [3] is reported as 111.5%, the CLint scaled [3] is reported as 3620 mL/min/kg and the “Remaining, % (T=60min)” value [3] is reported as 0.1%. For the same compound, the half-life [3] was 1.51 min and the microsomal CLint [3] was 915 µL/min/mg.
